Measured values as given in US4468387A, “Pesticidal N-sulfonyl N'-oxalate phosphorodiamido(di)thioates” (Rohm and Haas Company, priority 1982, dated 1984).

Key:
Type in all cases: in vivo
[1] = system: Southern armyworm (Spodoptera eridania); assay: armyworm test, sprayed detached bean leaves, third instar southern armyworm larvae; conditions: 600 ppm, leaf spray, percent kill after 48 hours
Source text: (§1) A test solution containing 600 ppm of test compound can be made by dissolving the test compound in a solvent (acetone:methanol, 1:1), adding surfactant and then water to give an acetone:methanol:water system of 10:10:80. A 1:1 mixture of an alkylarylpolyetheralcohol (commercially available under the trademark Triton X-155) and a modified phthalic glycerol alkyl resin (commercially available under the trademark Triton B-1956) can be utilized at the equivalent of one ounce per 100 gallons of test solution and a surfactant.
For the armyworm test, detached bean leaves on pieces of moistened filter paper are sprayed as above for the mite test in similar dishes and allowed to dry. The dishes are infested with 10 third instar southern armyworm larvae. The dishes are covered. After holding for 48 hours, the percent kill is obtained.

[2] = system: Two-spotted spider mite (Tetranychus urticae); assay: mite test, sprayed infested bean leaf discs (two-spotted spider mite); conditions: 600 ppm; leaf disc spray; percent kill after 24 hours
Source text: as §1
For the mite test, infested bean (Phaseolus limeanus) leaf discs (1.25 inches in diameter) containing about 50 mites are placed in a Petri dish lid on a moistened piece of cotton. The leaves are then sprayed with the test solution using a rotating turntable. They are held for 24 hours and then the percent kill is determined.

[3] = system: Southern root-knot nematode (Meloidogyne incognita); assay: nematode test, inoculated soil, cucumber root knots; conditions: about 30 ppm by volume in soil; knots on cucumber roots after about 23 days
Source text: as §1
For the nematode test, soil is homogeneously inoculated with a macerated blend of tomato roots heavily knotted with the root knot nematode. Ten milliliters of the test solution are added to 200 milliliters of the inoculated soil in a 16 oz. jar to give a concentration by volume of about 30 ppm. The jar is then shaken to insure thorough mixing, immediately uncapped, and allowed to air for 24 hours. The soil is then placed into a 3 inch plastic pot after which time 3 cucumber (Cucumis sativus) seeds are planted. About 23 days thereafter, the cucumber plants are removed from the soil and the root system examined for the presence of knots. A total of 15 knots or less is considered as a measure of control.

| Compound | Insecticidal Screening Results, % Control, Southern Armyworm [1] [%] | Insecticidal Screening Results, % Control, Two-Spotted Mite [2] [%] | Nema (control of root-knot nematode) [3] |
| --- | --- | --- | --- |
| CCC(C)SP(=O)(N(C)C(=O)C(=O)OC(C)C)N(C)S(C)(=O)=O (stereo not drawn) [Example 1, N-Methanesulfonyl N,N'-dimethyl N'-[(1-methylethoxycarbonyl)carbonyl] S-(1-methylpropyl) phosphorodiamidothioate] | 100 | 100 | + (A total of 15 knots or less is considered as a measure of control) |
| CCC(C)SP(=O)(N(C)C(=O)C(=O)OC)N(C)S(C)(=O)=O (stereo not drawn) [Example 2, N-Methanesulfonyl N'-[(methoxycarbonyl)carbonyl] N,N'-dimethyl S-(1-methylpropyl) phosphorodiamidothioate] | 100 | 100 | + (A total of 15 knots or less is considered as a measure of control) |
| CCC(C)SP(=O)(N(C)C(=O)C(=O)OC(C)(C)C)N(C)S(C)(=O)=O (stereo not drawn) [Example 3, N-Methanesulfonyl N,N'-dimethyl N'-[(1,1-dimethylethoxy)carbonylcarbonyl] S-(1-methylpropyl) phosphorodiamidothioate] | 100 | 100 | + (A total of 15 knots or less is considered as a measure of control) |
| CCC(C)SP(=O)(N(C)C(=O)C(=O)OC1CCCCC1)N(C)S(C)(=O)=O (stereo not drawn) [Example 4, N'-Cyclohexyloxycarbonylcarbonyl N-methanesulfonyl N,N'-dimethyl S-(1-methylpropyl) phosphorodiamidothioate] | 30 | 100 | + (A total of 15 knots or less is considered as a measure of control) |
| CCC(C)SP(=O)(N(C)C(=O)C(=O)Oc1ccccc1)N(C)S(C)(=O)=O (stereo not drawn) [Example 6, N-Methanesulfonyl N,N'-dimethyl S-(1-methylpropyl) N'-phenoxycarbonylcarbonyl phosphorodiamidothioate] | 100 | 100 | + (A total of 15 knots or less is considered as a measure of control) |
| CCCSC(=O)C(=O)N(C)P(=O)(SC(C)CC)N(C)S(C)(=O)=O (stereo not drawn) [Example 7, N-Methanesulfonyl N,N'-dimethyl S-(1-methylpropyl) N'-(propylthio)carbonylcarbonyl phosphorodiamidothioate] | 100 | 100 | + (A total of 15 knots or less is considered as a measure of control) |
| CCC(C)SP(=O)(N(C)C(=O)C(=O)Oc1ccc(SC)cc1)N(C)S(C)(=O)=O (stereo not drawn) [Example 8, N-Methanesulfonyl N,N'-dimethyl S-(1-methylpropyl N'-(4-methylthiophenoxy)carbonylcarbonyl phosphorodiamidothioate] | 100 | 100 | + (A total of 15 knots or less is considered as a measure of control) |
| CCC(C)OC(=O)C(=O)N(C)P(=O)(SC(C)CC)N(C)S(C)(=O)=O (stereo not drawn) [Example 9, N-Methanesulfonyl N,N'-dimethyl S-(1-methylpropyl) N'-(1-methylpropyloxy)carbonylcarbonyl phosphorodiamidothioate] | 100 | 100 | + (A total of 15 knots or less is considered as a measure of control) |
| CCC(C)SP(=O)(N(C)C(=O)C(=O)OCCCl)N(C)S(C)(=O)=O (stereo not drawn) [Example 10, N'-(2-Chloroethoxy)carbonylcarbonyl N-methanesulfonyl N,N'-dimethyl S-(1-methylpropyl) phosphorodiamidothioate] | 100 | 100 | + (A total of 15 knots or less is considered as a measure of control) |
| CCSCCOC(=O)C(=O)N(C)P(=O)(SC(C)CC)N(C)S(C)(=O)=O (stereo not drawn) [Example 11, N'-(2-Ethylthioethoxy)carbonylcarbonyl N-methanesulfonyl N,N'-dimethyl S-(1-methylpropyl) phosphorodiamidothioate] | 100 | 100 | + (A total of 15 knots or less is considered as a measure of control) |
| CCC(C)SP(=O)(N(C)C(=O)C(=O)SC1CCCCC1)N(C)S(C)(=O)=O (stereo not drawn) [Example 12, N'-(Cyclohexylthio)carbonylcarbonyl N-methansulfonyl N,N'-dimethyl S-(1-methylpropyl) phosphorodiamidothioate] | 100 | 100 | + (A total of 15 knots or less is considered as a measure of control) |
| CCC(C)SP(=O)(N(C)C(=O)C(=O)OCCOC)N(C)S(C)(=O)=O (stereo not drawn) [Example 13, N-Methanesulfonyl N'-(2-methoxyethoxy)carbonylcarbonyl N,N'-dimethyl S-(1-methylpropyl) phosphorodiamidothioate] | 100 | 100 | + (A total of 15 knots or less is considered as a measure of control) |
| CCC(C)SP(=O)(N(C)C(=O)C(=O)OCc1ccccc1)N(C)S(C)(=O)=O (stereo not drawn) [Example 14, N'-Benzyloxycarbonylcarbonyl N-methanesulfonyl N,N'-dimethyl S-(1-methylpropyl) phosphorodiamidothioate] | 100 | 100 | + (A total of 15 knots or less is considered as a measure of control) |
